For orientation: IC50 means the concentration that inhibits the measured activity by half. Read a low IC50 as inhibition by little substance.

The structures appear in SMILES notation.

The target of the assay is T1, wild-type human melanocortin 4 receptor (WT-hMC4R) (Homo sapiens, UniProt P32245).
T1 construct: expressed in transfected cells; cDNA from UMR cDNA resource center
T1 sequence (P32245 whole entry): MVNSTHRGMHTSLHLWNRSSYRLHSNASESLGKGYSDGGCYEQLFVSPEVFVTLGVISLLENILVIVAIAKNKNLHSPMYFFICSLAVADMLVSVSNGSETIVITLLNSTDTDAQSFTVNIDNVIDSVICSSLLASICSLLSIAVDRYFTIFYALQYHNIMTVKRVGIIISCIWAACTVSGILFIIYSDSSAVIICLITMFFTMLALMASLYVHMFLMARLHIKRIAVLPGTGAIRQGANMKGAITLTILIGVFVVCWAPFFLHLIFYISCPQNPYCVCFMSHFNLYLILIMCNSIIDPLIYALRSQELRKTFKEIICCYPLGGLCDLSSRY
As to the kind of experiment: Cyclic AMP assay (HTRF), antagonist competition against NDP-α-MSH. The note with it: HEK293T cells expressing double-tagged WT-hMC4R; cAMP accumulation; 1 hour compound then 4 nM NDP-α-MSH 30 min. The assay is classed as cell-based. The protocol:
Intracellular cyclic 3′-5′ adenosine monophosphate (cAMP) accumulation was measured using a competitive immunoassay based on HTRF (Homogeneous Time-Resolved Fluorescence) technology (cAMP dynamic-2, Cis-Bio).
HEK293T stable cell line expressing double-tagged WT-hMC4R construct were collected and washed in cAMP buffer (1XD-PBS pH 7.4, 0.1% glucose). 40,000 cells/well were then dispensed in 96-well plates in cAMP buffer [1XD-PBS, 1% BSA, 0.1% Glucose, 0.75 mM 3-isobutyl-1methyl-xanthine (IBMX, Sigma)] and incubated either for antagonist competition assay: 1 hour at 37° C. with various concentrations of compound [0.01 nM-10 μM] followed by 30 min incubation at 37° C. with 4 nM of NDP-α-MSH (Sigma) or for agonist assay: 1 hour at 37° C. with various concentrations of compound [0.01 nM-10 μM]. 10,000 cells were transferred in 384-well plates, lysed and incubated with cAMP labeled with the dye d2 and anti-cAMP M-Antibody labeled with Cryptate following the manufacturer's protocol.
Reading of HTRF signal was performed on Artemis TR-FRET plate reader (Cosmo Bio).
All curve fitting was conducted using non-linear regression analyses from PRISM (version 4.0c, GraphPad Inc.) and the determination of Rmax and EC50 or IC50 parameters were obtained from sigmoidal dose-response phase (variable slope) equation.
A cDNA encoding a wild-type human MC4R with a 3 tandem copies of Hemaglutinine (HA) epitote sequence from UMR cDNA resource center was modified using known techniques in the art (e.g., PCR, cloning) to fused in frame at the C-terminal a venus-Yellow Fluorescent Protein (YFP) cDNA.
The resultant cDNA was then subcloned in eukaryotic expression vector, e.g. pcDNA 3.1(+) (Invitrogen).
The double tagged WT-hMC4R was transfected in HEK293T cells with lipofectamine (Invitrogen) following the manufacturer's instructions and permanently transfected clonal cell lines were selected by resistance to the neomycin analog G418.
HEK293T stable cell line expressing wild-type human melanocortin 4 receptor (WT-hMC4R) containing an N-terminal 3xHA epitope tag and an intracellular C-terminal venus-yellow fluorescent protein (v-YFP) were maintained at 37° C. in humidified air containing 5% CO2 in Dulbecoo's modified Eagle's medium (DMEM) supplemented with 10% fetal bovine serum (FBS), 100 U/ml penicillin/streptomycin (DMEM complete/10% FBS). Cells were generally at 70%-80% confluence on the day of assay.
In the case of `CCCCN(CCCC)C(=O)c1ccn2nc(-c3ccc(OC)cc3)c(CCCN3CCCCC3)c2c1` [Example 1, N,N-Dibutyl-2-(4-methoxyphenyl)-3-(3-(piperidin-1-yl)propyl)pyrazolo[1,5-a]pyridine-5-carboxamide], the IC50 lay in the range of 1 to 5 µM.
As for `COc1ccc(-c2nn3ccc(C(=O)N(CCC(C)C)CCC(C)C)cc3c2CCCN2CCCCC2)cc1` [Example 2], the IC50 lay in the range of 1 to 5 µM.
Molecule `COc1ccc(-c2nn3ccc(C(=O)N(CCC(C)C)CCC(C)C)cc3c2/C=C/CN2CCCCC2)cc1` [Example 3] gave an IC50 of 0.5 to 1 µM.
For `CC(C)CCN(CCC(C)C)C(=O)c1ccn2nc(-c3ccc(C(C)(C)C)cc3)c(CCCN3CCCCC3)c2c1` [Example 4] the value was 1 to 5 µM; for `CC(C)CCN(CCC(C)C)C(=O)c1ccn2nc(-c3ccc(C(C)(C)C)cc3)c(/C=C/CN3CCCCC3)c2c1` [Example 5], 1 to 5 µM.
Take `CC(C)CCN(CCC(C)C)C(=O)c1ccn2nc(-c3ccc(C(C)(C)C)cc3)c(/C=C/CN3CCCC3)c2c1` [Example 6]: the IC50 was 1 to 5 µM.
In turn, `CCCCN(CCCC)C(=O)c1ccn2nc(-c3ccc(C(C)(C)C)cc3)c(/C=C/CN3CCCCC3)c2c1` [Example 7] came in with an IC50 of 5 to 15 µM.
Regarding `CC(C)CCN(CCC(C)C)C(=O)c1ccn2nc(-c3ccc(C(C)(C)C)cc3)c(CCCN3CCCC3)c2c1` [Example 8], the IC50 fell in the range of 1 to 5 µM.
`CCCCN(CCCC)C(=O)c1ccn2nc(-c3ccc(C(C)(C)C)cc3)c(CCCN3CCCC3)c2c1` [Example 9] had an IC50 of 5 to 15 µM.
The figure for `CC(C)CCN(CCC(C)C)C(=O)c1ccn2nc(-c3ccc(Cl)cc3)c(/C=C/CN3CCCCC3)c2c1` [Example 10, (E)-2-(4-chlorophenyl)-N,N-diisopentyl-3-(3-(piperidin-1-yl)prop-1-en-1-yl)pyrazolo[1,5-a]pyridine-5-carboxamide] is 0.5 to 1 µM; for `CC(C)CCN(CCC(C)C)C(=O)c1ccn2nc(-c3ccc(Cl)cc3)c(CCCN3CCCCC3)c2c1` [Example 11, 2-(4-Chlorophenyl)-N,N-diisopentyl-3-(3-(piperidin-1-yl)propyl)pyrazolo[1,5-a]pyridine-5-carboxamide] it is 1 to 5 µM; for `CCCCN(CCCC)C(=O)c1ccn2nc(-c3ccc(OC)cc3)c(/C=C/CN3CCCCC3)c2c1` [Example 12, (E)-N,N-Dibutyl-2-(4-methoxyphenyl)-3-(3-(piperidin-1-yl)prop-1-enyl)pyrazolo[1,5-a]pyridine-5-carboxamide] it is 1 to 5 µM.
As for `COc1cccc(-c2nn3ccc(C(=O)N(CCC(C)C)CCC(C)C)cc3c2/C=C/CN2CCCCC2)c1` [Example 13], the IC50 lay within 0.5 to 1 µM.
The molecule `COc1ccc(-c2nn3ccc(C(=O)N(CCC(C)C)CCC(C)C)cc3c2/C=C/CN2CCCCC2)cc1OC` [Example 14] came in with an IC50 of under 0.5 µM.
For `COc1cccc(-c2nn3ccc(C(=O)N(CCC(C)C)CCC(C)C)cc3c2CCCN2CCCCC2)c1` [Example 15] the value was under 0.5 µM; for `COc1ccc(-c2nn3ccc(C(=O)N(CCC(C)C)CCC(C)C)cc3c2CCCN2CCCCC2)cc1OC` [Example 16], under 0.5 µM.
Regarding `COc1ccc(-c2nn3ccc(C(=O)N(CCC(C)C)CCC(C)C)cc3c2/C=C/CN(C)C)cc1` [Example 17], the IC50 was in the range of 5 to 15 µM.
`COc1ccc(-c2nn3ccc(C(=O)N(CCC(C)C)CCC(C)C)cc3c2CCCN(C)C)cc1` [Example 18] returned an IC50 of 5 to 15 µM.
The figure for `CCCCCN(CCCCC)C(=O)c1ccn2nc(-c3ccc(OC)cc3)c(/C=C/CN3CCCCC3)c2c1` [Example 19] is 1 to 5 µM; for `CCOc1ccc(-c2nn3ccc(C(=O)N(CCC(C)C)CCC(C)C)cc3c2/C=C/CN2CCCCC2)cc1` [Example 20] it is 1 to 5 µM.
Take `CCCCCN(CCCCC)C(=O)c1ccn2nc(-c3ccc(OC)cc3)c(CCCN3CCCCC3)c2c1` [Example 21]: the IC50 lay within 1 to 5 µM.
Consider `CCOc1ccc(-c2nn3ccc(C(=O)N(CCC(C)C)CCC(C)C)cc3c2CCCN2CCCCC2)cc1` [Example 22], for which the IC50 was 0.5 to 1 µM.
The molecule `COc1ccc(-c2nn3ccc(C(=O)N(CCC(C)C)CCC(C)C)cc3c2/C=C/CN2CCCC2)cc1` [Example 23] registered an IC50 of 1 to 5 µM.
Consider `CC(C)CCN(CCC(C)C)C(=O)c1ccn2nc(-c3ccc(C(=O)O)cc3)c(/C=C/CN3CCCCC3)c2c1` [Example 24], for which the IC50 is 1 to 5 µM.
For `CCCCN(CCC)C(=O)c1ccn2nc(-c3ccc(OC)cc3)c(/C=C/CN3CCCCC3)c2c1` [Example 25] the value was 1 to 5 µM; for `CCCN(CC1CC1)C(=O)c1ccn2nc(-c3ccc(OC)cc3)c(/C=C/CN3CCCCC3)c2c1` [Example 26], 5 to 15 µM.
In turn, `CCCN(CC1CC1)C(=O)c1ccn2nc(-c3ccc(OC)cc3)c(CCCN3CCCCC3)c2c1` [Example 27] returned an IC50 of 5 to 15 µM.
For `CC(C)CCN(CCC(C)C)C(=O)c1ccn2nc(-c3cccc(Br)c3)c(/C=C/CN3CCCCC3)c2c1` [Example 28] the value was 1 to 5 µM.
Molecule `CC(=O)c1cccc(-c2nn3ccc(C(=O)N(CCC(C)C)CCC(C)C)cc3c2/C=C/CN2CCCCC2)c1` [Example 29] displayed an IC50 of 0.5 to 1 µM.
For the molecule `COC(=O)c1cccc(-c2nn3ccc(C(=O)N(CCC(C)C)CCC(C)C)cc3c2/C=C/CN2CCCCC2)c1` [Example 30], the IC50 was under 0.5 µM.
`COC(=O)c1cccc(-c2nn3ccc(C(=O)N(CCC(C)C)CCC(C)C)cc3c2CCCN2CCCCC2)c1` [Example 31] came in with an IC50 of under 0.5 µM.
Consider `CC(C)CCN(CCC(C)C)C(=O)c1ccn2nc(-c3cccc(C(C)O)c3)c(CCCN3CCCCC3)c2c1` (stereo not drawn) [Example 32], for which the half-maximal inhibitory concentration (IC50) lay in the range of 0.5 to 1 µM.
The figure for `CC(=O)c1cccc(-c2nn3ccc(C(=O)N(CCC(C)C)CCC(C)C)cc3c2CCCN2CCCCC2)c1` [Example 33] is under 0.5 µM; for `CC(C)CCN(CCC(C)C)C(=O)c1ccn2nc(-c3ccccc3Br)c(/C=C/CN3CCCCC3)c2c1` [Example 34] it is 1 to 5 µM.
For `CC(=O)c1ccccc1-c1nn2ccc(C(=O)N(CCC(C)C)CCC(C)C)cc2c1/C=C/CN1CCCCC1` [Example 35], the IC50 was 1 to 5 µM.
Consider `COC(=O)c1ccccc1-c1nn2ccc(C(=O)N(CCC(C)C)CCC(C)C)cc2c1/C=C/CN1CCCCC1` [Example 36], for which the IC50 lay within 1 to 5 µM.
For `CC(C)CCN(CCC(C)C)C(=O)c1ccn2nc(-c3cccc(Br)c3)c(CCCN3CCCCC3)c2c1` [Example 37] the value was under 0.5 µM.
For `CC(C)CCN(CCC(C)C)C(=O)c1ccn2nc(-c3ccccc3Br)c(CCCN3CCCCC3)c2c1` [Example 38] the value was 1 to 5 µM; for `COC(=O)c1ccccc1-c1nn2ccc(C(=O)N(CCC(C)C)CCC(C)C)cc2c1CCCN1CCCCC1` [Example 39], 1 to 5 µM.
On to `CC(=O)c1ccccc1-c1nn2ccc(C(=O)N(CCC(C)C)CCC(C)C)cc2c1CCCN1CCCCC1` [Example 40], for which the IC50 lay within 1 to 5 µM.
Regarding `CC(C)CCN(CCC(C)C)C(=O)c1ccn2nc(-c3ccc(Br)cc3)c(/C=C/CN3CCCCC3)c2c1` [Example 41, (E)-2-(4-Bromophenyl)-N,N-diisopentyl-3-(3-(piperidin-1-yl)prop-1-en-1-yl)pyrazolo[1,5-a]pyridine-5-carboxamide], the half-inhibitory concentration (IC50) was 1 to 5 µM.
For `CC(=O)c1ccc(-c2nn3ccc(C(=O)N(CCC(C)C)CCC(C)C)cc3c2/C=C/CN2CCCCC2)cc1` [Example 42, (E)-2-(4-Acetylphenyl)-N,N-diisopentyl-3-(3-(piperidin-1-yl)prop-1-en-1-yl)pyrazolo[1,5-a]pyridine-5-carboxamide] the value was 0.5 to 1 µM.
